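Each compound was tested at five concentrations against cells in 96-well plates for 48 hours. Abbreviation: GI50, concentration required for 50% inhibition of growth.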 The source made the active and inactive calls. Rule as the data show it: active = GI50 up to about 1.1 µM and inactive = higher.
Key:
Experiment in all cases: inhibition of tumour cell growth, NCI panel, 48 h
DMS-114 = tested on: DMS-114
RPMI-8226 = tested on: RPMI-8226
SN12C = tested on: SN12C
SF-295 = tested on: SF-295
MOLT-4 = tested on: MOLT-4
HOP-92 = tested on: HOP-92
NCI-H522 = tested on: NCI-H522
Malme-3M = tested on: Malme-3M
SF-268 = tested on: SF-268
SK-MEL-28 = tested on: SK-MEL-28
KM-20L2 = tested on: KM-20L2
SR = tested on: SR
SNB-19 = tested on: SNB-19
HT-29 = tested on: HT-29
786-0 = tested on: 786-0
OVCAR-3 = tested on: OVCAR-3
U-251 = tested on: U-251
SNB-75 = tested on: SNB-75
HL-60 = tested on: HL-60
M19-MEL = tested on: M19-MEL
SNB-78 = tested on: SNB-78
RXF 393 = tested on: RXF 393
IGROV-1 = tested on: IGROV-1
SK-MEL-5 = tested on: SK-MEL-5
SF-539 = tested on: SF-539
CAKI-1 = tested on: CAKI-1
KM12 = tested on: KM12
SK-MEL-2 = tested on: SK-MEL-2
OVCAR-8 = tested on: OVCAR-8
NCI-H226 = tested on: NCI-H226
SW-620 = tested on: SW-620
ACHN = tested on: ACHN
EKVX = tested on: EKVX
HCT-15 = tested on: HCT-15
HOP-62 = tested on: HOP-62
SK-OV-3 = tested on: SK-OV-3
NCI-H460 = tested on: NCI-H460
UACC-62 = tested on: UACC-62
CCRF-CEM = tested on: CCRF-CEM
A498 = tested on: A498
XF498 = tested on: XF498
NCI-H23 = tested on: NCI-H23
LXFL 529 = tested on: LXFL 529
OVCAR-5 = tested on: OVCAR-5
HCT-116 = tested on: HCT-116
A549 = tested on: A549
HCC 2998 = tested on: HCC 2998
TK-10 = tested on: TK-10
COLO 205 = tested on: COLO 205
UO-31 = tested on: UO-31
M14 = tested on: M14
OVCAR-4 = tested on: OVCAR-4
K562 = tested on: K562
LOX IMVI = tested on: LOX IMVI
DLD-1 = tested on: DLD-1
DMS-273 = tested on: DMS-273
UACC-257 = tested on: UACC-257
HOP-18 = tested on: HOP-18

## O=S(=O)(c1ccccc1)n1cc(C[P+](c2ccccc2)(c2ccccc2)c2ccccc2)c2ccccc21
DMS-114
  GI50: 3.37 µM (inactive)
RPMI-8226
  GI50: 0.6 µM (active)
SN12C
  GI50: 5.69 µM (inactive)
SF-295
  GI50: 12 µM (inactive)
MOLT-4
  GI50: 4.91 µM (inactive)
HOP-92
  GI50: 1.87 µM (inactive)
NCI-H522
  GI50: 2.36 µM (inactive)
Malme-3M
  GI50: 4.38 µM (inactive)
SF-268
  GI50: 5.66 µM (inactive)
SK-MEL-28
  GI50: 2.7 µM (inactive)
KM-20L2
  GI50: 4.89 µM (inactive)
SR
  GI50: 5.2 µM (inactive)
SNB-19
  GI50: 2.61 µM (inactive)
HT-29
  GI50: 3.4 µM (inactive)
786-0
  GI50: 5.04 µM (inactive)
OVCAR-3
  GI50: 2.95 µM (inactive)
U-251
  GI50: 3.79 µM (inactive)
SNB-75
  GI50: 3.25 µM (inactive)
HL-60
  GI50: 2.04 µM (inactive)
M19-MEL
  GI50: 4.29 µM (inactive)
SNB-78
  GI50: 5.71 µM (inactive)
RXF 393
  GI50: 6.35 µM (inactive)
IGROV-1
  GI50: 2.08 µM (inactive)
SK-MEL-5
  GI50: 1.67 µM (inactive)
SF-539
  GI50: 4.59 µM (inactive)
CAKI-1
  GI50: 13.9 µM (inactive)
KM12
  GI50: 3.6 µM (inactive)
SK-MEL-2
  GI50: 2.3 µM (inactive)
OVCAR-8
  GI50: 2.81 µM (inactive)
NCI-H226
  GI50: 4.81 µM (inactive)
SW-620
  GI50: 4.59 µM (inactive)
ACHN
  GI50: 15.3 µM (inactive)
EKVX
  GI50: 3.33 µM (inactive)
HCT-15
  GI50: 16.6 µM
HOP-62
  GI50: 3.19 µM (inactive)
SK-OV-3
  GI50: 2.5 µM (inactive)
NCI-H460
  GI50: 2.91 µM (inactive)
UACC-62
  GI50: 5.12 µM (inactive)
CCRF-CEM
  GI50: 2.43 µM (inactive)
A498
  GI50: 15.6 µM (inactive)
XF498
  GI50: 3.6 µM (inactive)
NCI-H23
  GI50: 2.99 µM (inactive)
LXFL 529
  GI50: 1.48 µM (inactive)
OVCAR-5
  GI50: 17.2 µM (inactive)
HCT-116
  GI50: 3.81 µM (inactive)
A549
  GI50: 10.9 µM (inactive)
HCC 2998
  GI50: 3.36 µM (inactive)
TK-10
  GI50: 3.69 µM (inactive)
COLO 205
  GI50: 1.99 µM (inactive)
UO-31
  GI50: 3.38 µM (inactive)
M14
  GI50: 2.64 µM (inactive)
OVCAR-4
  GI50: 9.95 µM (inactive)
K562
  GI50: 2.65 µM (inactive)
LOX IMVI
  GI50: 3.57 µM (inactive)
DLD-1
  GI50: 2.46 µM (inactive)
DMS-273
  GI50: 3.21 µM (inactive)

## C=CC[C@@]1(C#N)C[C@H](C[C@]2(C#N)C[C@H](CCl)OC(C)(C)O2)OC(C)(C)O1
DMS-114
  GI50: 41.2 µM (inactive)
RPMI-8226
  GI50: 52.5 µM (inactive)
UACC-257
  GI50: 94.8 µM (inactive)
SN12C
  GI50: > 100 µM (inactive)
SF-295
  GI50: > 100 µM (inactive)
MOLT-4
  GI50: 72.8 µM (inactive)
HOP-92
  GI50: 51.9 µM (inactive)
NCI-H522
  GI50: 46 µM (inactive)
Malme-3M
  GI50: > 100 µM (inactive)
SF-268
  GI50: > 100 µM (inactive)
SK-MEL-28
  GI50: > 100 µM (inactive)
KM-20L2
  GI50: > 100 µM (inactive)
SR
  GI50: 60.7 µM (inactive)
SNB-19
  GI50: > 100 µM (inactive)
HT-29
  GI50: > 100 µM (inactive)
786-0
  GI50: > 100 µM (inactive)
OVCAR-3
  GI50: > 100 µM (inactive)
U-251
  GI50: > 100 µM (inactive)
SNB-75
  GI50: 64.4 µM (inactive)
HL-60
  GI50: 36 µM (inactive)
M19-MEL
  GI50: > 100 µM (inactive)
RXF 393
  GI50: > 100 µM (inactive)
IGROV-1
  GI50: > 100 µM (inactive)
SK-MEL-5
  GI50: 63.5 µM (inactive)
SF-539
  GI50: > 100 µM (inactive)
CAKI-1
  GI50: > 100 µM (inactive)
KM12
  GI50: > 100 µM (inactive)
SK-MEL-2
  GI50: > 100 µM (inactive)
OVCAR-8
  GI50: > 100 µM (inactive)
NCI-H226
  GI50: 38.4 µM (inactive)
SW-620
  GI50: > 100 µM (inactive)
ACHN
  GI50: > 100 µM (inactive)
EKVX
  GI50: > 100 µM (inactive)
HCT-15
  GI50: > 100 µM
HOP-62
  GI50: > 100 µM (inactive)
SK-OV-3
  GI50: > 100 µM (inactive)
NCI-H460
  GI50: > 100 µM (inactive)
UACC-62
  GI50: > 100 µM (inactive)
CCRF-CEM
  GI50: > 100 µM (inactive)
A498
  GI50: > 100 µM (inactive)
XF498
  GI50: 81.1 µM (inactive)
NCI-H23
  GI50: > 100 µM (inactive)
OVCAR-5
  GI50: > 100 µM (inactive)
HCT-116
  GI50: 55.2 µM (inactive)
A549
  GI50: > 100 µM (inactive)
HCC 2998
  GI50: > 100 µM (inactive)
TK-10
  GI50: > 100 µM (inactive)
COLO 205
  GI50: > 100 µM (inactive)
UO-31
  GI50: 43 µM (inactive)
M14
  GI50: > 100 µM (inactive)
OVCAR-4
  GI50: > 100 µM (inactive)
HOP-18
  GI50: > 100 µM (inactive)
K562
  GI50: 53 µM (inactive)
LOX IMVI
  GI50: > 100 µM (inactive)
DLD-1
  GI50: > 100 µM (inactive)
DMS-273
  GI50: > 100 µM (inactive)

Source: ChEMBL document CHEMBL1201862, “PubChem BioAssay data set” (2004)
